Assay results reported in patent publication US10183949B2, “Pyrimidinone derivative having autotaxin-inhibitory activity” (The University of Tokyo, priority 2014, dated 2019).

The compounds below were run against T1, Human autotaxin enzyme (Homo sapiens, UniProt Q13822) (assay: Evaluation of autotaxin inhibitor, 18:0 Lyso PC / choline assay (Test Example 2)). Conditions: human autotaxin enzyme, 18:0 Lyso PC substrate, choline assay, room temperature 2 hours; read-out: Inhibitor activity (IC50).
T1 construct: purchased R&D System
Type: biochemical
In short: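 Inhibition derived from concentration-dependent curves, scaled between no-compound (0%) and no-enzyme (100%) wells. Choline generated from 18:0 Lyso PC (200 μM stock) by human enzyme over 2 h at room temperature (Tris-HCl pH 7.5, NaCl, MgCl2, Triton X-100) read as resorufin fluorescence, 531/598 nm, after choline oxidase-peroxidase coupling.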

IC50 [nM] | Compound
100 to 1000 | CC(C)(C)OC(=O)Cn1c(CCC(F)(F)F)nc(-c2ccc(Cl)cc2NC(=O)C(C)(C)C)cc1=O [Compound I-0341]
10 to 100 | NC(=O)C1CCN(C(=O)Cn2c(CCCC(F)(F)F)nc(-c3ccc(C(F)(F)F)cc3)cc2=O)CC1 [Compound I-0342]
100 to 1000 | O=C1CCC(CNC(=O)Cn2c(CCCC(F)(F)F)nc(-c3ccc(C(F)(F)F)cc3)cc2=O)CN1 (stereo not drawn) [Compound I-0343]
10 to 100 | O=C(Cn1c(CCCC(F)(F)F)nc(-c2ccc(C(F)(F)F)cc2)cc1=O)NCC1(O)CCCCC1 [Compound I-0344]
10 to 100 | O=C(O)c1cccc(Cn2c(CCC(F)(F)F)nc(-c3ccc(Cl)cc3NC(=O)C3CC3)cc2=O)c1 [Compound I-0345]
10 to 100 | O=C(Cn1c(CCCC(F)(F)F)nc(-c2ccc(C(F)(F)F)cc2)cc1=O)N1CCN(CCO)CC1 [Compound I-0346]
10 to 100 | O=C(Cn1c(CCCC(F)(F)F)nc(-c2ccc(C(F)(F)F)cc2)cc1=O)NC1(c2cccnc2)CC1 [Compound I-0347]
10 to 100 | O=C(Cn1c(CCCC(F)(F)F)nc(-c2ccc(C(F)(F)F)cc2)cc1=O)NC1(c2ccccn2)CC1 [Compound I-0348]
10 to 100 | O=C(Cn1c(CCCC(F)(F)F)nc(-c2ccc(C(F)(F)F)cc2)cc1=O)N1CCS(=O)(=O)CC1 [Compound I-0349]
10 to 100 | CNC(=O)C1CCN(C(=O)Cn2c(CCCC(F)(F)F)nc(-c3ccc(C(F)(F)F)cc3)cc2=O)CC1 [Compound I-0350]
100 to 1000 | CC(=O)NC1CCN(C(=O)Cn2c(CCCC(F)(F)F)nc(-c3ccc(C(F)(F)F)cc3)cc2=O)CC1 [Compound I-0351]
10 to 100 | CC(C)(O)C1CCN(C(=O)Cn2c(CCCC(F)(F)F)nc(-c3ccc(C(F)(F)F)cc3)cc2=O)CC1 [Compound I-0352]
10 to 100 | NC(=S)C1CCN(C(=O)Cn2c(CCCC(F)(F)F)nc(-c3ccc(C(F)(F)F)cc3)cc2=O)CC1 [Compound I-0353]
10 to 100 | O=C(Cn1c(CCCC(F)(F)F)nc(-c2ccc(C(F)(F)F)cc2)cc1=O)N1CCC(OCCO)CC1 [Compound I-0354]
100 to 1000 | O=C(NCC1(CO)COC1)c1ccc(Cn2c(CCCC(F)(F)F)nc(-c3ccc(Cl)cc3)cc2=O)o1 [Compound I-0355]
< 10 | CNC(=O)NC1CCN(C(=O)Cn2c(CCCC(F)(F)F)nc(-c3ccc(C(F)(F)F)cc3)cc2=O)CC1 [Compound I-0356]
100 to 1000 | CC(C)(O)CN1CCN(C(=O)Cn2c(CCCC(F)(F)F)nc(-c3ccc(C(F)(F)F)cc3)cc2=O)CC1 [Compound I-0357]
10 to 100 | O=C(NCC1(CO)COC1)c1cccc(Cn2c(CCCC(F)(F)F)nc(-c3ccc(Cl)cc3)cc2=O)n1 [Compound I-0358]
10 to 100 | CS(=O)(=O)N1CCN(C(=O)Cn2c(CCCC(F)(F)F)nc(-c3ccc(C(F)(F)F)cc3)cc2=O)CC1 [Compound I-0359]
100 to 1000 | CC(C)(C)C(=O)Nc1cc(Cl)ccc1-c1cc(=O)n(CC(=O)NCC2(CO)COC2)c(CCC(F)(F)F)n1 [Compound I-0360]
10 to 100 | CN1CNC(=O)C12CCN(C(=O)Cn1c(CCCC(F)(F)F)nc(-c3ccc(C(F)(F)F)cc3)cc1=O)CC2 [Compound I-0361]
10 to 100 | O=C(Cn1c(CCCC(F)(F)F)nc(-c2ccc(C(F)(F)F)cc2)cc1=O)N1CCC(N2CCNC2=O)CC1 [Compound I-0362]
10 to 100 | CCNC(=O)N1CCC(NC(=O)Cn2c(CCCC(F)(F)F)nc(-c3ccc(C(F)(F)F)cc3)cc2=O)CC1 [Compound I-0363]

IC50 [nM] | Compound
100 to 1000 | CN(C)C(=O)NC1CCN(C(=O)Cn2c(CCCC(F)(F)F)nc(-c3ccc(C(F)(F)F)cc3)cc2=O)CC1 [Compound I-0364]
100 to 1000 | CNC(=O)CN1CCC(NC(=O)Cn2c(CCCC(F)(F)F)nc(-c3ccc(C(F)(F)F)cc3)cc2=O)CC1 [Compound I-0365]
100 to 1000 | CCS(=O)(=O)N1CCN(C(=O)Cn2c(CCCC(F)(F)F)nc(-c3ccc(C(F)(F)F)cc3)cc2=O)CC1 [Compound I-0366]
10 to 100 | CC(C)(C)C(=O)Nc1cc(Cl)ccc1-c1cc(=O)n(CC(=O)N2CCC(C(=O)O)CC2)c(CCC(F)(F)F)n1 [Compound I-0367]
10 to 100 | O=C(Cn1c(CCCC(F)(F)F)nc(-c2ccc(C(F)(F)F)cc2)cc1=O)NCCc1nnc(-c2ccccc2)o1 [Compound I-0368]
100 to 1000 | O=C(Cn1c(CCCC(F)(F)F)nc(-c2ccc(C(F)(F)F)cc2)cc1=O)N1CCC(O)(Cc2ccccc2)CC1 [Compound I-0369]
100 to 1000 | CCS(=O)(=O)N1CCC(NC(=O)Cn2c(CCCC(F)(F)F)nc(-c3ccc(C(F)(F)F)cc3)cc2=O)CC1 [Compound I-0370]
≥ 1000 | Cc1nc(-c2ccc(Cl)cc2NC(=O)C(C)(C)C)cc(=O)n1CCO [Compound I-0371]
10 to 100 | COC(=O)Nc1cc(C#N)ccc1-c1cc(=O)n(CC(=O)NC(C)(C)C)c(C)n1 [Compound I-0372]
10 to 100 | COC(=O)Nc1cc(C#N)ccc1-c1cc(=O)n(CC(=O)OC(C)(C)C#N)c(C)n1 [Compound I-0373]
10 to 100 | COC(=O)Nc1cc(C#N)ccc1-c1cc(=O)n(CC(=O)N(C)C(C)(C)C)c(C)n1 [Compound I-0374]
< 10 | COC(=O)Nc1cc(Cl)ccc1-c1cc(=O)n(CC(=O)OC(C)(C)C#N)c(C)n1 [Compound I-0375]
10 to 100 | Cc1nc(-c2ccc(Cl)cc2NC(=O)C(C)(C)C)cc(=O)n1CC(=O)NC1(C#N)CC1 [Compound I-0376]
10 to 100 | COC(=O)Nc1cc(Cl)ccc1-c1cc(=O)n(Cc2cccc(C(=N)NO)c2)c(C)n1 [Compound I-0377]
< 10 | COC(=O)Nc1cc(C#N)ccc1-c1cc(=O)n(Cc2cccc(-c3nc(=O)o[nH]3)c2)c(C)n1 [Compound I-0378]
< 10 | COC(=O)Nc1cc(Cl)ccc1-c1cc(=O)n(Cc2cccc(-c3nc(=O)o[nH]3)c2)c(C)n1 [Compound I-0379]
10 to 100 | Cc1nc(-c2ccc(Cl)cc2NC(=O)C(C)(C)C)cc(=O)n1CC(=O)NC1(C(=N)NO)CC1 [Compound I-0380]
10 to 100 | CNC(=O)NC1CCN(C(=O)Cn2c(C)nc(-c3ccc(C#N)cc3NC(=O)OC)cc2=O)CC1 [Compound I-0381]
10 to 100 | CCCCCc1nc(-c2ccc(Cl)cc2)cc(=O)n1CC(=O)N1CCC(c2nc(=O)o[nH]2)CC1 [Compound I-0382]
10 to 100 | CNC(=O)NC1CCN(C(=O)Cn2c(C)nc(-c3ccc(Cl)cc3NC(=O)OC)cc2=O)CC1 [Compound I-0383]
≥ 1000 | COC(=O)Nc1cc(Cl)ccc1-c1cc(=O)n(CC(=O)N2C(C)(C)CC(O)CC2(C)C)c(C)n1 [Compound I-0384]
10 to 100 | O=C(Cn1c(CCCC(F)(F)F)nc(-c2ccc(C(F)(F)F)cc2)cc1=O)NC1(c2nc(=O)o[nH]2)CC1 [Compound I-0387]
≥ 1000 | CC(C)(C)OC(=O)Cn1cnc(-c2ccc(Cl)cc2)cc1=O [Compound I-0388]

IC50 [nM] | Compound
10 to 100 | COC(=O)Nc1cc(C#N)ccc1-c1cc(=O)n(CC(=O)NC(C)C)c(C)n1 [Compound I-0389]
10 to 100 | COC(=O)Nc1cc(Cl)ccc1-c1cc(=O)n(CC(=O)NC(C)C)c(C)n1 [Compound I-0390]
10 to 100 | Cc1nc(-c2ccc(Cl)cc2NC(=O)C2CC2)cc(=O)n1CC(=O)NC(C)C [Compound I-0391]
10 to 100 | COC(=O)Nc1cc(Cl)ccc1-c1cc(=O)n(CC(=O)NC2(C)CC2)c(C)n1 [Compound I-0392]
10 to 100 | COC(=O)Nc1cc(Cl)ccc1-c1cc(=O)n(CC(=O)NC2COC2)c(C)n1 [Compound I-0393]
< 10 | COC(=O)Nc1cc(C#N)ccc1-c1cc(=O)n(CC(=O)NC2(C#N)CC2)c(C)n1 [Compound I-0394]
100 to 1000 | COC(=O)Nc1cc(Cl)ccc1-c1cc(=O)n(CC(=O)N2CC(F)C2)c(C)n1 [Compound I-0395]
≥ 1000 | O=C(Cn1cnc(-c2ccc(Cl)cc2)cc1=O)NC(Cc1ccccc1)C(=O)O (stereo not drawn) [Compound I-0396]
10 to 100 | COC(=O)Nc1cc(C#N)ccc1-c1cc(=O)n(CC(=O)NC2(C)COC2)c(C)n1 [Compound I-0397]
100 to 1000 | COC(=O)Nc1cc(C#N)ccc1-c1cc(=O)n(CC(=O)N2CC(C)(O)C2)c(C)n1 [Compound I-0398]
10 to 100 | COC(=O)Nc1cc(C#N)ccc1-c1cc(=O)n(CC(=O)NCC(C)(C)O)c(C)n1 [Compound I-0399]
10 to 100 | COC(=O)Nc1cc(C#N)ccc1-c1cc(=O)n(CC(=O)NC(C)(C)CO)c(C)n1 [Compound I-0400]
10 to 100 | Cc1nc(-c2ccc(Cl)cc2NC(=O)C2CC2)cc(=O)n1CC(=O)NC1(C)CC1 [Compound I-0401]
≥ 1000 | O=C(Cn1cnc(-c2ccc(Cl)cc2)cc1=O)NCCCNC(=O)c1cn[nH]n1 [Compound I-0402]
10 to 100 | COC(=O)Nc1cc(Cl)ccc1-c1cc(=O)n(CC(=O)NC2(C#N)CC2)c(C)n1 [Compound I-0403]
10 to 100 | Cc1nc(-c2ccc(Cl)cc2NC(=O)C2CC2)cc(=O)n1CC(=O)NC1COC1 [Compound I-0404]
10 to 100 | Cc1nc(-c2ccc(Cl)cc2NC(=O)C2CC2)cc(=O)n1CC(=O)NC(C)(C)C [Compound I-0405]
10 to 100 | Cc1nc(-c2ccc(Cl)cc2NC(=O)C2CC2)cc(=O)n1CC(=O)NCC(N)=O [Compound I-0406]
10 to 100 | CC(C)(C)NC(=O)Cn1cnc(-c2ccc(Cl)cc2NC(=O)C(C)(C)C)cc1=O [Compound I-0407]
100 to 1000 | Cc1nc(-c2ccc(Cl)cc2NC(=O)C2CC2)cc(=O)n1CC(=O)N1CC(F)C1 [Compound I-0408]
100 to 1000 | CC(C)(C)C(=O)Nc1cc(Cl)ccc1-c1cc(=O)n(CC(=O)NCC(N)=O)cn1 [Compound I-0409]

Compound | IC50 [nM]
Cc1nc(-c2ccc(C#N)cc2NC(=O)C(C)(C)C)cc(=O)n1CC(=O)NC1(c2nc(=O)o[nH]2)CC1 [Compound I-0385] | 10 to 100
Cc1nc(-c2ccc(Cl)cc2NC(=O)C(C)(C)C)cc(=O)n1CC(=O)NC1(c2nc(=O)o[nH]2)CC1 [Compound I-0386] | 10 to 100
